The text below walks through data of US9073916B2, “Prodrug forms of kinase inhibitors and their use in therapy” (AUCKLAND UNISERVICES LIMITED, priority 2009, dated 2015).

The target in data set [1] is erbB1 (Homo sapiens, UniProt P00533). Put plainly: Isolated enzyme inhibition (Invitrogen Z′-LYTE kinase assay). The following applies: 10 μM ATP, duplicate. In kind it is biochemical.
Data set [2] relates to A431 cells. Kind of data set: Oxic and hypoxic cellular metabolism of prodrug 20. Format: in vitro ADME, Human. The following applies: 10 uM prodrug. As for the experimental part: (§1) A431 and SKOV3 cells were grown in a 175 flask and seeded at 40K, a density which gave an 80-90% confluent cell layer after 7 days growth. Cells were washed with PBS, harvested with 0.05% trypsin/EDTA, centrifuged at 1000 rpm for 5 mins at room temperature and re-suspended in a 1 mL of cell culture medium (α-MEM containing 10% FCS, 10 mM D-Glucose and 0.2 mM 2′-deoxycytidine). Cell numbers were determined with the Coulter counter and the appropriate number of cells was transferred to a new tube. 5×10^5 cells per well were plated into wells of a 24-well plate in a total volume of 350 μL/well (i.e. 14.3×10^5 cells/mL). Cells were incubated at 37° C. for two hours to attach to the wells and for anoxic samples to equilibrate. […] The cells were incubated for 1, 2 or 3 hours at 37° C. At the appropriate time the 24 well plate was removed from the incubator/anoxic chamber and placed on ice. The contents of each well was transferred to the microcentrifuge tube kept on ice. 800 μL of acetonitrile (spiked with D6 internal standards of compounds 11 and 20, each 0.5 uM) was added to each of the drug treated wells to allow efficient extraction from the cell monolayer. Then the entire contents (1200 uL=400+800 uL) was vortex mixed and transferred to −80° C. for storage until they were run on the LC-MS/MS system. A similar procedure was followed for the control samples. […]

In data set [3] the test system is SKOV3 cells. Put plainly: Oxic and hypoxic cellular metabolism of prodrug 20. In kind it is in vitro ADME, Human. The following applies: 10 uM prodrug. The procedure:
as §1

pIC50: −log10 of the molar value.

erbB1, sequence (P00533 25-1210): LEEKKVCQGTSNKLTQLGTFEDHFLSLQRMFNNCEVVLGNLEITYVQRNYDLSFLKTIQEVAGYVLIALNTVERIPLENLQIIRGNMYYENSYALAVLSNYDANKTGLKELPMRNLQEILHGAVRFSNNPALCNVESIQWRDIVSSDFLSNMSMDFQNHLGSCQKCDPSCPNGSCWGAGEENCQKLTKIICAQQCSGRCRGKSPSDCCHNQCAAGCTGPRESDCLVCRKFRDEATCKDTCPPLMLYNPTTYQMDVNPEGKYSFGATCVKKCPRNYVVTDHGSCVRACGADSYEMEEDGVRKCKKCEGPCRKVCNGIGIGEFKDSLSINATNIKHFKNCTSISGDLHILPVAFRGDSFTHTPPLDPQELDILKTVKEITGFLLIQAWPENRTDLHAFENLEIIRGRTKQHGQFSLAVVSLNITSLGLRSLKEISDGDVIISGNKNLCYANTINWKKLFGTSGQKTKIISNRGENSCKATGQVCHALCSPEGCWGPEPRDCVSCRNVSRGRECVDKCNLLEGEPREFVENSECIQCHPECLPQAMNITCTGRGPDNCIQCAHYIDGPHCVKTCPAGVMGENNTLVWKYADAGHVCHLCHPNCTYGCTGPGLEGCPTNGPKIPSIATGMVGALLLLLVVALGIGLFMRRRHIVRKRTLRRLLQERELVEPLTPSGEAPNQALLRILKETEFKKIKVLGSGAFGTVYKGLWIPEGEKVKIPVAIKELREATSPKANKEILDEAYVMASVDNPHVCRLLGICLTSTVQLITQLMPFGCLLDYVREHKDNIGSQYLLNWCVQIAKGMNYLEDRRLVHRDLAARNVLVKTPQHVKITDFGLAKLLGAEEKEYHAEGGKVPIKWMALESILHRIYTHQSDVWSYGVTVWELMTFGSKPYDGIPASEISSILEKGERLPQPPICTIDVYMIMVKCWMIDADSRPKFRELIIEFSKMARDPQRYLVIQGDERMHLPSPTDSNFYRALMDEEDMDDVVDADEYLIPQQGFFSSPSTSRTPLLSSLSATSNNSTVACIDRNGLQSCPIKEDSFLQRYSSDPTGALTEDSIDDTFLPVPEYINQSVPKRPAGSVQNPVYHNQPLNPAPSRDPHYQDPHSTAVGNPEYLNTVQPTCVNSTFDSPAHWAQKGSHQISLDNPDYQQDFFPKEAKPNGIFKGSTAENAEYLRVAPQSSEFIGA

In the case of `Cn1cnc([N+](=O)[O-])c1C[N+](C)(C)C/C=C/C(=O)Nc1ccc2ncnc(Nc3cccc(Br)c3)c2c1.[Br-]` [Compound 20, (2E)-4-{[4-(3-bromoanilino)-6-quinazolinyl]amino}-N,N-dimethyl-N-[(1-methyl-4-nitro-1H-imidazol-5-yl)methyl]-4-oxo-2-buten-1-ammonium bromide], the negative-log IC50 (pIC50) (usually the negative decadic logarithm of the IC50, by convention in mol/L) in data set [1] is 9.33. The “rate of hypoxic metabolism to inhibitor 11” value stood at 200 pmol/hour/million cells in data set [2] and 500 pmol/hour/million cells in data set [3].
